The values that follow are results of earlier work, collected in patent US6491952B1, “Cholesterol lowering composition” (Triple Crown AB, priority 1998, dated 2002).

For this series the following is noted: daily intake; references 1-5.

Consider `CC[C@H](CC[C@@H](C)[C@H]1CC[C@H]2[C@@H]3CC[C@H]4C[C@@H](O)CC[C@]4(C)[C@H]3CC[C@]12C)C(C)C` [β-sitostanol], for which the cholesterol lowering effect entry was “cholesterol lowering effect”.

Regarding `CC[C@H](CC[C@@H](C)[C@H]1CC[C@H]2[C@@H]3CC=C4C[C@@H](O)CC[C@]4(C)[C@H]3CC[C@]12C)C(C)C` [β-sitosterol], the cholesterol lowering effect entry was “cholesterol lowering effect”.
